From patent US10519111B2, “UV absorbing compounds, compositions comprising same and uses thereof” (CORAL SUNSCREEN PTY LTD, priority 2013, dated 2019)

Assays:
[1] = Critical wavelength (λcrit), approximate in-house measurement; assay type: physicochemical
Description: As the precise test for critical wavelength was unable to be replicated exactly by the inventors due to the need for specialist equipment and a specific calibration of the spectrophotometer, these values are only approximate to a degree. […] This represents a highly useful result and so, compounds based around this benzoyl substitution pattern shown, are especially preferred.

[2] = UV absorption properties (λmax, molar extinction coefficient ε, efficiency E 1%, 1 cm); assay type: physicochemical
[3] = Table 3, compounds from isocyanates or isothiocyanates
[4] = Table 4, N-aryl enamines with isocyanates
[5] = Table 5, acylation of N-t-Bu enamine
[6] = Table 5, values in order of the λmax values
[7] = Table 5, values in order of the λmax values, in M-1 cm-1
[8] = Table 6B, N-tert-butyl compounds
[9] = Table 7, values in order of the λmax values

With `Cc1ccc(NC(=O)C2=CN(C(C)(C)C)CCC2(C)C)cc1NC(=O)C1=CN(C(C)(C)C)CCC1(C)C` [drawing 62] the λcrit ([1]; Table 3) was 329 nm, the “Ε (1%, 1 cm)” value ([2]; Table 3) was 1174 and the λmax [2, 3] was 308 nm. The ε ([2]; Table 3, in M-1 cm-1) was 59763.

With `CC1(C)CCN(C(C)(C)C)C=C1C(=O)Nc1ccc(Cc2ccc(NC(=O)C3=CN(C(C)(C)C)CCC3(C)C)cc2)cc1` [drawing 63] the λcrit ([1]; Table 3) was 328 nm, the “Ε (1%, 1 cm)” value ([2]; Table 3) was 1105 and the λmax [2, 3] was 310 nm. It also gave a ε ([2]; Table 3, in M-1 cm-1) of 64589.

For `Cc1ccc(S(=O)(=O)NC(=O)C2=CN(C(C)(C)C)CCC2(C)C)cc1` [drawing 64], the λcrit ([1]; Table 3) was 319 nm, the “Ε (1%, 1 cm)” value ([2]; Table 3) was 950 and the λmax [2, 3] was 304 nm. It also gave a ε ([2]; Table 3, in M-1 cm-1) of 34588.

With `CC1(C)CCN(C(C)(C)C)C=C1C(=O)Nc1ccc(NC(=O)C2=CN(C(C)(C)C)CCC2(C)C)cc1` [drawing 65] the λcrit ([1]; Table 3) was 346 nm, the “Ε (1%, 1 cm)” value ([2]; Table 3) was 1456 and the λmax [2, 3] was 322 nm. The ε ([2]; Table 3, in M-1 cm-1) was 71962.

For `CC1(C)CCN(C(C)(C)C)C=C1C(=O)Nc1cccc(NC(=O)C2=CN(C(C)(C)C)CCC2(C)C)c1` [drawing 66], the λcrit ([1]; Table 3) was 328 nm, the “Ε (1%, 1 cm)” value ([2]; Table 3) was 1129 and the λmax [2, 3] was 313 nm. It also gave a ε ([2]; Table 3, in M-1 cm-1) of 55779.

For `Cc1ccc(N2C=C(C(=O)Nc3ccc(C)c(NC(=O)C4=CN(C(C)(C)C)CCC4(C)C)c3)C(C)(C)CC2)cc1` [drawing 67], the λcrit ([1]; Table 4) was 340 nm, the “Ε (1%, 1 cm)” value ([2]; Table 4) was 954 and the λmax [2, 4] was 314 nm. For the same compound, the ε ([2]; Table 4, in M-1 cm-1) was 51743.

For `CC1(C)CCN(c2ccc(C(C)(C)C)cc2)C=C1C(=O)Nc1ccc(NC(=O)C2=CN(c3ccc(C(C)(C)C)cc3)CCC2(C)C)cc1` [drawing 68], the λcrit ([1]; Table 4) was 354 nm, the “Ε (1%, 1 cm)” value ([2]; Table 4) was 1054 and the λmax [2, 4] was 331 nm. The ε ([2]; Table 4, in M-1 cm-1) was 68095.

With `Cc1ccc(N2C=C(C(=O)Nc3ccccc3)C(C)(C)CC2)cc1` [drawing 69] the λcrit ([1]; Table 4) was 342 nm, the “Ε (1%, 1 cm)” value ([2]; Table 4) was 1060 and the λmax [2, 4] was 323 nm. The ε ([2]; Table 4, in M-1 cm-1) was 33948.

With `CC1(C)CCN(c2ccc(C(C)(C)C)cc2)C=C1C(=O)Nc1ccccc1` [drawing 70] the λcrit ([1]; Table 4) was 342 nm, the “Ε (1%, 1 cm)” value ([2]; Table 4) was 987 and the λmax [2, 4] was 324 nm. It also gave a ε ([2]; Table 4, in M-1 cm-1) of 35759.

With `CC1(C)CCN(C(C)(C)C)C=C1C(=O)CCCCCCCCC(=O)C1=CN(C(C)(C)C)CCC1(C)C` [drawing 72] the λcrit ([1]; Table 5) was 322 nm, the λmax [2, 5] was 307 nm and the “Ε (1%, 1 cm)” value [2, 6] was 1095. For the same compound, the ε [2, 7] was 54797.

In the case of `CC1(C)CCN(C(C)(C)C)C=C1C(=O)C1=CN(C(C)(C)C)CCC1(C)C` [drawing 73], the λcrit ([1]; Table 5) is reported as 351 nm, the λmax [2, 5] is reported as 305 nm and the “Ε (1%, 1 cm)” value [2, 6] is reported as 456. The ε [2, 7] was 16425 and the “shoulder in the λmax column” value ([2]; Tables 5, 10, 13B) was 330 nm.

For `CC1(C)CCN(C(C)(C)C)C=C1C(=O)COc1ccccc1` [drawing 74], the λcrit ([1]; Table 5) was 329 nm, the λmax [2, 5] was 313 nm and the “Ε (1%, 1 cm)” value [2, 6] was 869. For the same compound, the ε [2, 7] was 26154.

For `CC1(C)CCN(C(C)(C)C)C=C1C(=O)c1ccncc1` [drawing 75], the λcrit ([1]; Table 5) was 354 nm, the λmax [2, 5] was 316 nm and the “Ε (1%, 1 cm)” value [2, 6] was 866. It also gave a ε [2, 7] of 23556.

In the case of `CC(C)CN1C=C(C(=O)c2ccc(N(C)C)cc2)C(C)(C)CC1` [drawing 83], the λcrit ([1]; Table 6A) is reported as 362 nm, the “E (1%, 1 cm)” value ([2]; Table 6A) is reported as 544 and the ε ([2]; Table 6A) is reported as 17000 M⁻¹ cm⁻¹. The λmax ([2]; Table 6A, N-isobutyl-C3-benzoyl compounds) was 336 nm.

With `C=CC(=O)C1=CN(C(C)(C)C)CCC1(C)C` [drawing 92] the λcrit ([1]; Table 6B) was 360 nm, the “E (1%, 1 cm)” value ([2]; Table 6B) was 1127 and the λmax [2, 8] was 328 nm. For the same compound, the ε ([2]; Table 6B, in M-1 cm-1) was 24907.

For `CC1(C)CCN(C(C)(C)C)C=C1C(=O)/C=C/c1ccccc1` [drawing 93], the λcrit ([1]; Table 6B) was 385 nm, the “E (1%, 1 cm)” value ([2]; Table 6B) was 781 and the λmax [2, 8] was 360 nm. The ε ([2]; Table 6B, in M-1 cm-1) was 23198.

In the case of `CC1(C)CCN(C(C)(C)C)C=C1C(=O)c1ccc(Br)cc1` [drawing 94], the λcrit ([1]; Table 6B) is reported as 347 nm, the “E (1%, 1 cm)” value ([2]; Table 6B) is reported as 785 and the λmax [2, 8] is reported as 317 nm. For the same compound, the ε ([2]; Table 6B, in M-1 cm-1) was 27506.

For `CN(C)c1ccc(C(=O)C2=CN(C(C)(C)C)CCC2(C)C)cc1` [drawing 95], the λcrit ([1]; Table 6B) was 361 nm, the “E (1%, 1 cm)” value ([2]; Table 6B) was 793 and the λmax [2, 8] was 333 nm. The ε ([2]; Table 6B, in M-1 cm-1) was 24966.

With `CC(C)(C)Oc1ccc(C(=O)C2=CN(C(C)(C)C)CCC2(C)C)cc1` [drawing 96] the λcrit ([1]; Table 6B) was 344 nm, the “E (1%, 1 cm)” value ([2]; Table 6B) was 949 and the λmax [2, 8] was 317 nm. For the same compound, the ε ([2]; Table 6B, in M-1 cm-1) was 32556.

In the case of `CC1(C)CCN(C(C)(C)C)C=C1C(=O)c1ccc(C(=O)C2=CN(C(C)(C)C)CCC2(C)C)cc1` [drawing 97], the λcrit ([1]; Table 6B) is reported as 355 nm, the “E (1%, 1 cm)” value ([2]; Table 6B) is reported as 732 and the λmax [2, 8] is reported as 317 nm. It also gave a ε ([2]; Table 6B, in M-1 cm-1) of 33982.

With `CC1(C)CCN(C(C)(C)C)C=C1C(=O)c1ccc(C(=O)O)cc1` [drawing 98] the λcrit ([1]; Table 6B) was 353 nm, the “E (1%, 1 cm)” value ([2]; Table 6B) was 549 and the λmax [2, 8] was 317 nm. For the same compound, the ε ([2]; Table 6B, in M-1 cm-1) was 17300.

With `CC(C)CN1C=C(C(=O)/C=C/c2ccccc2)C(C)(C)CC1` [drawing 111] the λcrit ([1]; Table 7) was 383 nm, the λmax ([2]; Table 7, unsaturated compounds) was 360 nm and the “E (1%, 1 cm)” value [2, 9] was 533. For the same compound, the ε [2, 9] was 16000 M⁻¹ cm⁻¹.
